# Test results taken from publication PMC6201879, “N-substituted phenylbenzamides of the niclosamide chemotype attenuate obesity related changes in high fat diet fed mice” (PLoS ONE, 2018).
# Where two headings read alike, the source gives them in different places.
# Tests used:
# [1] = test system: phospho-AMPK Thr-172 (p-AMPK); assay: Western blot of phospho-AMPK Thr-172 in HEK293T cells; format: cell-based, human; conditions: 1 and 10μM, negatives re-screened at 5 and 20 μM, 3 hours
# Protocol: AMPK is a metabolic sensor that maintains cellular energy supply. As validation of these changes in lipid metabolism and cellular respiration we evaluated phospho-AMPK Thr-172 (p-AMPK) levels by Western blot in HEK293 cells treated with the phenylbenzamide derivatives. Compounds were screened at 1 and 10μM using the known uncouplers niclosamide and FCCP as positive controls (Fig 4A). […] We concluded that compounds that had little effect on oxygen consumption rates also had little effect on phosphorylation of AMPK.
# [2] = test system: Salmonella typhimurium TA1537; conditions: for Mean Revertant Colony Counts TA-1537 SP9+: with S9; for Mean Revertant Colony Counts TA-1537 S9-: without S9
compound,measurement,setting,value
"CC(C)(C)c1ccc(O)c(C(=O)Nc2ccc(C(=O)O)cc2C(F)(F)F)c1 [Compound 500873, 4-[(5-tert-butyl-2-hydroxy)amido]-3-(trifluoromethyl)benzoic acid]",phosphorylation of AMPK (p-AMPK Thr-172) by Western blot,[1],no detectable changes in pAMPK levels
"CC(C)(C)c1cc(C(=O)Nc2ccc(C(=O)O)cc2Cl)c(O)c(C(C)(C)C)c1 [Compound 600453, 3-Chloro-4-[(3,5-di-tert-butyl-2-hydroxybenzene)amido]benzoic acid]",Mean Revertant Colony Counts TA-1537 SP9+,[2]; 1.5 ug/Well,2.3
same,Mean Revertant Colony Counts TA-1537 S9-,[2]; 1.5 ug/Well,0.7
same,Mean Revertant Colony Counts TA-1537 SP9+,[2]; 4 ug/Well,3.3
same,Mean Revertant Colony Counts TA-1537 S9-,[2]; 4 ug/Well,1.3
same,Mean Revertant Colony Counts TA-1537 SP9+,[2]; 10 ug/Well,1.7
same,Mean Revertant Colony Counts TA-1537 S9-,[2]; 10 ug/Well,2.3
same,Mean Revertant Colony Counts TA-1537 SP9+,[2]; 25 ug/Well,1.7
same,Mean Revertant Colony Counts TA-1537 S9-,[2]; 25 ug/Well,1.3
same,Mean Revertant Colony Counts TA-1537 SP9+,[2]; 64 ug/Well,1.0
same,Mean Revertant Colony Counts TA-1537 S9-,[2]; 64 ug/Well,0.3
same,Mean Revertant Colony Counts TA-1537 SP9+,[2]; 160 ug/Well,3.3
same,Mean Revertant Colony Counts TA-1537 S9-,[2]; 160 ug/Well,0.0
same,Mean Revertant Colony Counts TA-1537 SP9+,[2]; 400 ug/Well,0.7
same,Mean Revertant Colony Counts TA-1537 S9-,[2]; 400 ug/Well,1.0
same,Mean Revertant Colony Counts TA-1537 SP9+,[2]; 1000 ug/Well,3.7
same,Mean Revertant Colony Counts TA-1537 S9-,[2]; 1000 ug/Well,0.3
same,"fold increase in the mean number of revertant colonies, TA1537","[2]; any concentration tested, vs negative control",< 3 fold
